Where only a bound is given, the exact number is not on record here.

The values that follow come from BindingDB's records for doi:10.1021/jm0613121 (Bar-Ilan University, 2007).

One assay addresses T1, Gag-Pol polyprotein [600-1029,C879S]/[600-1159,C879S] (Human immunodeficiency virus 1, UniProt P03366, C879S).
T1 construct: 600-1029; 600-1159
Description: HIV-1 RT Assay.
Conditions: not given
For the compound `NC(=O)c1scnc1-c1cccc(I)c1` [4-(3-Iodophenyl)thiazole-5-carboxamide], the IC50 was greater than 312 µM.

In turn, `NC(=O)c1[nH]cnc1-c1cccc(-c2ccccc2)c1` [4-(3-Phenylphenyl)-1H-imidazole-5-carboxamide] yielded an IC50 greater than 312 µM.

Take `NC(=O)c1scnc1-c1cccc(-c2ccccc2)c1` [4-(3-phenylphenyl)-1,3-thiazole-5-carboxamide]: the IC50 is greater than 312 µM.

Still in this assay, the particulars now being: pH 7.5; 37 °C.
For `NC(=O)CC(=O)c1cccc(C(=O)c2ccccc2)c1` [3-(3-Benzoylphenyl)-3-oxopropanamide], the IC50 is greater than 312 µM.

`N#CCC(=O)c1ccc(Cl)c(Br)c1` [3-(3-Bromo-4-chlorophenyl)-3-oxopropanenitrile] showed an IC50 greater than 312 µM.

Regarding `NC(=O)CC(=O)c1cccc(Cl)c1` [3-(3-Chlorophenyl)-3-oxopropanamide], the concentration for half-maximal inhibition (IC50) is greater than 312 µM.

For the compound `N#CCC(=O)c1cccc(I)c1` [3-(3-Iodophenyl)-3-oxopropanenitrile], the IC50 was greater than 312 µM.

`NC(=O)CC(=O)c1cccc(-c2ccccc2)c1` [3-Oxo-3-(3-phenylphenyl)propanamide] yielded an IC50 greater than 312 µM.

In the case of `NC(=O)c1[nH]cnc1-c1cccc(C(=O)c2ccccc2)c1` [4-(3-Benzoylphenyl)-1H-imidazole-5-carboxamide], the IC50 was greater than 312 µM.
